Measured values from publication PMC12655637, “Design, Synthesis, and Mechanistic Study of Novel Ciprofloxacin/Thiazole Chalcone Hybrids as Potential Anticancer Agents” (Pharmaceuticals, 2025).

Key:
Experiment in all cases: NCI-60 screening, one-dose (10 µM) and five-dose, SRB
[1] = tested on: MDA-MB-435; assay type: cell-based; conditions: MDA-MB-435
[2] = tested on: HOP-62; assay type: cell-based, human; conditions: five-dose, HOP-62
[3] = tested on: T-47D; assay type: cell-based, human; conditions: five-dose
[4] = tested on: HT29; assay type: cell-based, human
[5] = tested on: BT-549; assay type: cell-based
[6] = tested on: OVCAR-3; assay type: cell-based
[7] = tested on: NCI-H226; assay type: cell-based, human
[8] = tested on: HCT-15; assay type: cell-based, human
[9] = tested on: SNB-19; assay type: cell-based
[10] = tested on: SN12C; assay type: cell-based, human
[11] = tested on: HS 578T; assay type: cell-based, human
[12] = tested on: ACHN; assay type: cell-based, human
[13] = tested on: UACC-257; assay type: cell-based, human
[14] = tested on: OVCAR-5; assay type: cell-based, human; conditions: five-dose, OVCAR-5
[15] = tested on: KM12; assay type: cell-based, human; conditions: five-dose, KM12
[16] = Homo sapiens, five-dose, read-out: LC50 (the source's name)
[17] = Homo sapiens, read-out: LC50 (the source's name)
[18] = Homo sapiens, HT-29, five-dose, HT29
[19] = Homo sapiens, five-dose, BT-549
[20] = Homo sapiens, five-dose, OVCAR-3
[21] = Homo sapiens, five-dose, NCI-H226
[22] = Homo sapiens, five-dose, HCT-15
[23] = Homo sapiens, five-dose, SNB-19
[24] = Homo sapiens, 10 μM, Renal Cancer, read-out: Growth percentage
[25] = Homo sapiens, five-dose, UACC-257

## Cc1nc(SCC(=O)N2CCN(c3cc4c(cc3F)c(=O)c(C(=O)O)cn4C3CC3)CC2)sc1C(=O)/C=C/c1cccc(Cl)c1 [Compound 4b, (E)-7-(4-(2-((5-(3-(3-Chlorophenyl)acryloyl)-4-methylthiazol-2-yl)thio)acetyl)piperazin-1-yl)-1-cyclopropyl-6-fluoro-4-oxo-1,4-dihydroquinoline-3-carboxylic Acid]
[1]; Homo sapiens
  GI50: 3.5 µM
  IC50: 7.4 µM
[1]; [16]
  CC50: > 100 µM
[1]; five-dose
  TGI: 52.5 µM
[2]; Homo sapiens
  GI50: 4.3 µM
  IC50: > 100 µM
[2]; [17]
  CC50: > 100 µM
[2]
  TGI: 100.0 µM
[3]; Homo sapiens, T47D
  GI50: > 100 µM
  IC50: > 100 µM
[3]; Homo sapiens, T47D, read-out: LC50 (the source's name)
  CC50: > 100 µM
[3]
  TGI: 100.0 µM
[4]; Homo sapiens, HT-29, 10 μM, HT29, Colon Cancer, read-out: Growth percentage
  activity at 10 µM: 24.4%
[4]; [18]
  GI50: > 100 µM
  IC50: > 100 µM
[4]; Homo sapiens, HT-29, five-dose, HT29, read-out: LC50 (the source's name)
  CC50: > 100 µM
[4]; five-dose, HT29
  TGI: 100.0 µM
[5]; Homo sapiens, 10 μM, BT-549, Breast Cancer, read-out: Growth percentage
  activity at 10 µM: -62.2%
[5]; [19]
  GI50: 15.8 µM
  IC50: 35.5 µM
[5]; Homo sapiens, five-dose, BT-549, read-out: LC50 (the source's name)
  CC50: 85.1 µM
[5]; five-dose, BT-549
  TGI: 36.3 µM
[6]; Homo sapiens, 10 μM, OVCAR-3, Ovarian Cancer, read-out: Growth percentage
  activity at 10 µM: 13.9%
[6]; [20]
  GI50: 22.9 µM
  IC50: 41.7 µM
[6]; Homo sapiens, five-dose, OVCAR-3, read-out: LC50 (the source's name)
  CC50: > 100 µM
[6]; five-dose, OVCAR-3
  TGI: 52.5 µM
[7]; Homo sapiens, 10 μM, NCI-H226, Non-Small-Cell Lung Cancer, read-out: Growth percentage
  activity at 10 µM: 80.9%
[7]; [21]
  GI50: > 100 µM
  IC50: > 100 µM
  LC50 (concentration killing 50% of cells): > 100 µM
[7]; five-dose, NCI-H226
  TGI: 100.0 µM
[8]; Homo sapiens, 10 μM, HCT-15, Colon Cancer, read-out: Growth percentage
  activity at 10 µM: 26.9%
[8]; [22]
  IC50: > 100 µM
  LC50 (50% lethal concentration): > 100 µM
[8]; five-dose, HCT-15
  TGI: 100.0 µM
[9]; Homo sapiens, 10 μM, SNB-19, CNS Cancer, read-out: Growth percentage
  activity at 10 µM: 54.7%
[9]; [23]
  GI50: 22.4 µM
  IC50: 49 µM
[9]; Homo sapiens, five-dose, SNB-19, read-out: LC50 (the source's name)
  CC50: > 100 µM
[9]; five-dose, SNB-19
  TGI: 100.0 µM
[10]; [24]
  activity at 10 µM: 51%
[10]; Homo sapiens, five-dose
  GI50: 44.7 µM
  IC50: > 100 µM
[10]; [16]
  CC50: > 100 µM
[10]; five-dose
  TGI: 100.0 µM
[11]; Homo sapiens, 10 μM, Breast Cancer, read-out: Growth percentage
  activity at 10 µM: 61.5%
[11]; Homo sapiens, five-dose
  GI50: 18.6 µM
  IC50: 70.8 µM
[11]; [16]
  CC50: > 100 µM
[11]; five-dose
  TGI: 75.9 µM
[12]; [24]
  activity at 10 µM: 99.1%
[12]; Homo sapiens, five-dose
  GI50: > 100 µM
  IC50: > 100 µM
[12]; [16]
  CC50: > 100 µM
[12]; five-dose
  TGI: 100.0 µM
[13]; Homo sapiens, 10 μM, UACC-257, Melanoma, read-out: Growth percentage
  activity at 10 µM: 77.9%
[13]; [25]
  GI50: > 100 µM
  IC50: > 100 µM
[13]; Homo sapiens, five-dose, UACC-257, read-out: LC50 (the source's name)
  CC50: > 100 µM
[13]; five-dose, UACC-257
  TGI: 100.0 µM
[14]; Homo sapiens
  GI50: > 100 µM
  IC50: > 100 µM
[14]; [17]
  CC50: > 100 µM
[14]
  TGI: 100.0 µM
[15]; Homo sapiens
  GI50: 0.9 µM
  IC50: 1.3 µM
  LC50: 9.3 µM
[15]
  TGI: 3.0 µM
